{"source": "the kinase profiling compilation of Christmann-Franck et al. (2016)", "assay_in_all_cases": "KINOMEscan competition binding", "conditions_in_all_cases": "compound 10.0 µM", "key": {"PIP5K1A (human)": {"target": "PIP5K1A (human) (UniProt Q99755)"}, "[1]": {"target": "TYK2 JH1 catalytic (human) (UniProt P29597)", "sequence (P29597 whole entry, looked up)": "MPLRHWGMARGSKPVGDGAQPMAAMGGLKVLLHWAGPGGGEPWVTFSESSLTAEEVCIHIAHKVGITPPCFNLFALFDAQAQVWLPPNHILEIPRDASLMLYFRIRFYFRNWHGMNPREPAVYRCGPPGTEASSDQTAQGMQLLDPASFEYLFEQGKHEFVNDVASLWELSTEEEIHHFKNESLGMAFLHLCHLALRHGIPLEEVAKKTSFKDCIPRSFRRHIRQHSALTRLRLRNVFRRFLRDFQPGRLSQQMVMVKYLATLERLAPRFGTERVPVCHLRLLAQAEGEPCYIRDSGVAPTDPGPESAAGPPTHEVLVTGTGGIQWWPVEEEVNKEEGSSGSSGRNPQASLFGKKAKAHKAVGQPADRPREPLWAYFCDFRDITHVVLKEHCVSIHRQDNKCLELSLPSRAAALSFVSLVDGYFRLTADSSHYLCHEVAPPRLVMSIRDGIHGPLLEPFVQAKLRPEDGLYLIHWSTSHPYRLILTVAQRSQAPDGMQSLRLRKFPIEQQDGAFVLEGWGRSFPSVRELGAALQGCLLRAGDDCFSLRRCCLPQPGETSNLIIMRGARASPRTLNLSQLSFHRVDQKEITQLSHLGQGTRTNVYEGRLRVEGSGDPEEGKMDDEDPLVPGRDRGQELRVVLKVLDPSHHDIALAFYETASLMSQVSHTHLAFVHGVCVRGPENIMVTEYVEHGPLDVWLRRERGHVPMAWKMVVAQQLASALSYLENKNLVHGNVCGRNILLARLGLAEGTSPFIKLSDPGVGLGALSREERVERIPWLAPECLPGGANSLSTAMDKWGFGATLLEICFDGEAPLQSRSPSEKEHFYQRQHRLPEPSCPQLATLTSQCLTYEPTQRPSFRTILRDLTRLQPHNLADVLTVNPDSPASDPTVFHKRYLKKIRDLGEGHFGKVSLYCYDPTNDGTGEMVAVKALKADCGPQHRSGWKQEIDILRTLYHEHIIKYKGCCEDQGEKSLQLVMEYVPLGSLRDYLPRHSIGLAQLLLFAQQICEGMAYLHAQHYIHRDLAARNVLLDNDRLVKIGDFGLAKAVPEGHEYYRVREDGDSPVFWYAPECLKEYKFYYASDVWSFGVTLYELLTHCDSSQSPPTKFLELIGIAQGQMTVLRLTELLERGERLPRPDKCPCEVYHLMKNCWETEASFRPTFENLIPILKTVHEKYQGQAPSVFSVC"}, "[2]": {"test_system": "EGFR (human), P00533 [T790M]"}, "FLT4 (human)": {"target": "FLT4 (human) (UniProt P35916)"}, "CSNK1A1L (human)": {"target": "CSNK1A1L (human) (UniProt Q8N752)"}, "DMPK (human)": {"target": "DMPK (human) (UniProt Q09013)"}, "STK17A (human)": {"target": "STK17A (human) (UniProt Q9UEE5)"}, "BMPR2 (human)": {"target": "BMPR2 (human) (UniProt Q13873)"}, "CSNK1G2 (human)": {"target": "CSNK1G2 (human) (UniProt P78368)"}, "MAP2K6 (human)": {"target": "MAP2K6 (human) (UniProt P52564)"}, "MAST1 (human)": {"target": "MAST1 (human) (UniProt Q9Y2H9)"}, "NTRK2 (human)": {"target": "NTRK2 (human) (UniProt Q16620)"}, "MST4 (human)": {"target": "MST4 (human) (UniProt Q9P289)", "sequence (Q9P289 whole entry, looked up)": "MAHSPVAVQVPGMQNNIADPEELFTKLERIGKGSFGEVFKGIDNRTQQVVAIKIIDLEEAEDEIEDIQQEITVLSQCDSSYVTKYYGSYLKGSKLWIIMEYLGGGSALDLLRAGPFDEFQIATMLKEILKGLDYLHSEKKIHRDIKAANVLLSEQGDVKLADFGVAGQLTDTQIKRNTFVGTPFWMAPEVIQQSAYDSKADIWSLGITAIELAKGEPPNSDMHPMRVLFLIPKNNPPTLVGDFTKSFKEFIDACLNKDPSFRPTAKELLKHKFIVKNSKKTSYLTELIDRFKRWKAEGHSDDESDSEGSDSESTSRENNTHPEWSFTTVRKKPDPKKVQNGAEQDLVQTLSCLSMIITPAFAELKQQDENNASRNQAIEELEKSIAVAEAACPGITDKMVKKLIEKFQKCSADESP"}, "MAP2K3 (human)": {"target": "MAP2K3 (human) (UniProt P46734)"}, "CDK13 (human)": {"target": "CDK13 (human) (UniProt Q14004)", "sequence (Q14004 whole entry, looked up)": "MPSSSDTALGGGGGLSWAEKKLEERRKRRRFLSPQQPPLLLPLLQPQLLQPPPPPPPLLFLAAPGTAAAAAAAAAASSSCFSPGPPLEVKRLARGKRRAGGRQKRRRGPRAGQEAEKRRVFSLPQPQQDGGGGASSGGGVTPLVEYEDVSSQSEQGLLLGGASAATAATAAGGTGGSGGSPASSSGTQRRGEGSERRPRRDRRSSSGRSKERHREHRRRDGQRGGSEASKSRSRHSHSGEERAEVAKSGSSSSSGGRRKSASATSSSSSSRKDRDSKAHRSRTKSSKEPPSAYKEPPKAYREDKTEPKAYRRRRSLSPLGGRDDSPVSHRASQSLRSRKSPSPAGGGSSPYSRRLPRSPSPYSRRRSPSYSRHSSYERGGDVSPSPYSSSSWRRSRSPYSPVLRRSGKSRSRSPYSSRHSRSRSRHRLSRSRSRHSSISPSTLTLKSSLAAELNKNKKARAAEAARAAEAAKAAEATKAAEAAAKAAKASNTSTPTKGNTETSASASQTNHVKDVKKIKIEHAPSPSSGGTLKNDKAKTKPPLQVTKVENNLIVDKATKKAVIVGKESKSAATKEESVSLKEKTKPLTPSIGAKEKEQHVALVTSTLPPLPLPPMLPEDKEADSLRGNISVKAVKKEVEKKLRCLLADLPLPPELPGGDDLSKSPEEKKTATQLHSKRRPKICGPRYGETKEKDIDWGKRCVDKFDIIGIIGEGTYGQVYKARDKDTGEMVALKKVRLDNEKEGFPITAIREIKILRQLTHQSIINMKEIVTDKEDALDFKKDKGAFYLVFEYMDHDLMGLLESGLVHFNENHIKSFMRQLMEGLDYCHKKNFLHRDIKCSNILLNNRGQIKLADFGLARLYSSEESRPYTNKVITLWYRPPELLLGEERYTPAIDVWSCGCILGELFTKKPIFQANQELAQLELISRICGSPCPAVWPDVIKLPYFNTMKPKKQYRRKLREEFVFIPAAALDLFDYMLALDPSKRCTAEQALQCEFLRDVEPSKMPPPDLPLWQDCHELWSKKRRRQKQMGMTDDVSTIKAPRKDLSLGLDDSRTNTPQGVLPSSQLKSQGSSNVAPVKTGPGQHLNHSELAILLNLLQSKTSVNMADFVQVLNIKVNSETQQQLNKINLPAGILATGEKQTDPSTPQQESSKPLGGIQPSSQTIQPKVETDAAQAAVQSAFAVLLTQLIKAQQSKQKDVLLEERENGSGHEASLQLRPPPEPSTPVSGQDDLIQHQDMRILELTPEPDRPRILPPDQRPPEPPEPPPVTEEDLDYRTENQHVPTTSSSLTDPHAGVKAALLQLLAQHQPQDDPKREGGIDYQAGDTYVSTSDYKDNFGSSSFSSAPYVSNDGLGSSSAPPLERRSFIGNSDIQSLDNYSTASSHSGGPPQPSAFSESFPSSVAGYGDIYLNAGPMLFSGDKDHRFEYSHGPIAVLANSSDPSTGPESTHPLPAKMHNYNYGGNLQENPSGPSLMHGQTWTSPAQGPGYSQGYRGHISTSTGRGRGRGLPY"}, "CaMK1 (human)": {"target": "CaMK1 (human) (UniProt Q14012)"}, "TEK (human)": {"target": "TEK (human) (UniProt Q02763)"}, "[3]": {"test_system": "PIK3CA (human), P42336 [M1043I]"}, "MKNK1 (human)": {"target": "MKNK1 (human) (UniProt Q9BUB5)"}, "MINK1 (human)": {"target": "MINK1 (human) (UniProt Q8N4C8)"}, "CDC42BPG (human)": {"target": "CDC42BPG (human) (UniProt Q6DT37)"}, "ALK (human)": {"target": "ALK (human) (UniProt Q9UM73)"}, "GRK1 (human)": {"target": "GRK1 (human) (UniProt Q15835)"}, "[4]": {"test_system": "FLT3 (human), P36888 [R834Q]"}, "PIM2 (human)": {"target": "PIM2 (human) (UniProt Q9P1W9)"}, "RPS6KA5 KD1 (human)": {"target": "RPS6KA5 KD1 (human) (UniProt O75582)", "sequence (O75582 whole entry, looked up)": "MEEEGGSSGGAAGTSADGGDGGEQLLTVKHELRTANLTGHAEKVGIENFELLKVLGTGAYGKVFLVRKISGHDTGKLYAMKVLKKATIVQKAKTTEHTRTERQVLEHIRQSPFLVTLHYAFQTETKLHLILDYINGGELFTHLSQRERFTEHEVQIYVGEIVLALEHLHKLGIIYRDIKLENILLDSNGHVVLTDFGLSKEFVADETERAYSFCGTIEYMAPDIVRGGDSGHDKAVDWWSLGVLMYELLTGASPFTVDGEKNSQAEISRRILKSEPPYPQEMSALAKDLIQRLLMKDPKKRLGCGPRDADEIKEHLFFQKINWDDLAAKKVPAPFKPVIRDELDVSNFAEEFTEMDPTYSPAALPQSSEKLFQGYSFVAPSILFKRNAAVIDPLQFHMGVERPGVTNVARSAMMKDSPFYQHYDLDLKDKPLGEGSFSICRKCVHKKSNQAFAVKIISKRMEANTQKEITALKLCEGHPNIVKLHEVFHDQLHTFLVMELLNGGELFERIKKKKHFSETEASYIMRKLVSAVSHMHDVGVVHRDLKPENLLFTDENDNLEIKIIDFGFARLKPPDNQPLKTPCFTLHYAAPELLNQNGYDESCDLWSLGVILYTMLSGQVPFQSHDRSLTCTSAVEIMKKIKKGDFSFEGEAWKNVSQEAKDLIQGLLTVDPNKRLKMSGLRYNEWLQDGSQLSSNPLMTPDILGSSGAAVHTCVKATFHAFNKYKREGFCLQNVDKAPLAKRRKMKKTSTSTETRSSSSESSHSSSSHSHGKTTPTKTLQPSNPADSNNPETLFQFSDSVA"}, "OXSR1 (human)": {"target": "OXSR1 (human) (UniProt O95747)"}, "EIF2AK1 (human)": {"target": "EIF2AK1 (human) (UniProt Q9BQI3)"}, "PIM3 (human)": {"target": "PIM3 (human) (UniProt Q86V86)"}, "MAPK9 (human)": {"target": "MAPK9 (human) (UniProt P45984)"}, "STK38L (human)": {"target": "STK38L (human) (UniProt Q9Y2H1)", "sequence (Q9Y2H1 whole entry, looked up)": "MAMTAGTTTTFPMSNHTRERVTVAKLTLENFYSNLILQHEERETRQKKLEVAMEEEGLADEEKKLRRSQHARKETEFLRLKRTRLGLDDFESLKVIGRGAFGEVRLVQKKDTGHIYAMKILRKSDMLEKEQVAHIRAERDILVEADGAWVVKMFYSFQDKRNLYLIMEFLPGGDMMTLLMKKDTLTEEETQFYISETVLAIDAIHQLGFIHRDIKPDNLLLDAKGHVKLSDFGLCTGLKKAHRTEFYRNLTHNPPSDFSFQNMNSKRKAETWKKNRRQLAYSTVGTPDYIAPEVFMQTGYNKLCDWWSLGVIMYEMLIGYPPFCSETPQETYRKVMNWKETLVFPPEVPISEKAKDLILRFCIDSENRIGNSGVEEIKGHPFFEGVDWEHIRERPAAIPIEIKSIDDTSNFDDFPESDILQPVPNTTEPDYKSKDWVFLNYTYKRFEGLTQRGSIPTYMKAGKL"}, "SBK1 (human)": {"target": "SBK1 (human) (UniProt Q52WX2)"}, "EPHB1 (human)": {"target": "EPHB1 (human) (UniProt P54762)"}, "RAF1 (human)": {"target": "RAF1 (human) (UniProt P04049)"}, "PIP4K2B (human)": {"target": "PIP4K2B (human) (UniProt P78356)"}, "STK4 (human)": {"target": "STK4 (human) (UniProt Q13043)"}, "CRK2 (P.falciparum)": {"target": "CRK2 (P.falciparum) (UniProt P61075)"}, "FGFR4 (human)": {"target": "FGFR4 (human) (UniProt P22455)"}, "[5]": {"test_system": "EGFR (human), P00533 [T790M/L858R]"}, "CAMK4 (human)": {"target": "CAMK4 (human) (UniProt Q16566)", "sequence (Q16566 whole entry, looked up)": "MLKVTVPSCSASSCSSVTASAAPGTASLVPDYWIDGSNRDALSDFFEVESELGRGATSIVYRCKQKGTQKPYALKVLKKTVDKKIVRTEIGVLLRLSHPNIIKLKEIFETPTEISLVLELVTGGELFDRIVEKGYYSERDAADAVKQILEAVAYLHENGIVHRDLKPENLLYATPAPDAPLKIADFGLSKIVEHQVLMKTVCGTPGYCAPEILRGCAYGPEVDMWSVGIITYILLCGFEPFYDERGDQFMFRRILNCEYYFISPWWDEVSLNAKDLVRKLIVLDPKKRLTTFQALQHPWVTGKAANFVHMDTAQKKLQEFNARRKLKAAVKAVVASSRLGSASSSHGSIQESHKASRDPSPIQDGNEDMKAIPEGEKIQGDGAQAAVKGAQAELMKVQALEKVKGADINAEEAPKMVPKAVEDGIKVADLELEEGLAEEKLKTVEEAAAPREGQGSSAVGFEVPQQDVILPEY"}, "CDK9 (human)": {"target": "CDK9 (human) (UniProt P50750)"}}}
{"smiles": "COc1cc(C(=O)N2CCC(N3CCN(C)CC3)CC2)ccc1Nc1ncc2c(n1)N(C)c1ccccc1C(=O)N2C", "values": [{"measurement": "kinase still bound, per cent of control", "setting": "PIP5K1A (human)", "value": 90, "unit": "%"}, {"measurement": "kinase still bound, per cent of control", "setting": "[1]", "value": 52, "unit": "%"}, {"measurement": "kinase still bound, per cent of control", "setting": "[2]", "value": 88, "unit": "%"}, {"measurement": "kinase still bound, per cent of control", "setting": "FLT4 (human)", "value": 100, "unit": "%"}, {"measurement": "kinase still bound, per cent of control", "setting": "CSNK1A1L (human)", "value": 100, "unit": "%"}, {"measurement": "kinase still bound, per cent of control", "setting": "DMPK (human)", "value": 100, "unit": "%"}, {"measurement": "kinase still bound, per cent of control", "setting": "STK17A (human)", "value": 100, "unit": "%"}, {"measurement": "kinase still bound, per cent of control", "setting": "BMPR2 (human)", "value": 100, "unit": "%"}, {"measurement": "kinase still bound, per cent of control", "setting": "CSNK1G2 (human)", "value": 100, "unit": "%"}, {"measurement": "kinase still bound, per cent of control", "setting": "MAP2K6 (human)", "value": 83, "unit": "%"}, {"measurement": "kinase still bound, per cent of control", "setting": "MAST1 (human)", "value": 100, "unit": "%"}, {"measurement": "kinase still bound, per cent of control", "setting": "NTRK2 (human)", "value": 100, "unit": "%"}, {"measurement": "kinase still bound, per cent of control", "setting": "MST4 (human)", "value": 95, "unit": "%"}, {"measurement": "kinase still bound, per cent of control", "setting": "MAP2K3 (human)", "value": 75, "unit": "%"}, {"measurement": "residual activity", "setting": "CDK13 (human)", "value": 100, "unit": "%"}, {"measurement": "kinase still bound, per cent of control", "setting": "CaMK1 (human)", "value": 55, "unit": "%"}, {"measurement": "kinase still bound, per cent of control", "setting": "TEK (human)", "value": 100, "unit": "%"}, {"measurement": "kinase still bound, per cent of control", "setting": "[3]", "value": 65, "unit": "%"}, {"measurement": "kinase still bound, per cent of control", "setting": "MKNK1 (human)", "value": 50, "unit": "%"}, {"measurement": "kinase still bound, per cent of control", "setting": "MINK1 (human)", "value": 77, "unit": "%"}, {"measurement": "kinase still bound, per cent of control", "setting": "CDC42BPG (human)", "value": 100, "unit": "%"}, {"measurement": "kinase still bound, per cent of control", "setting": "ALK (human)", "value": 13, "unit": "%"}, {"measurement": "kinase still bound, per cent of control", "setting": "GRK1 (human)", "value": 91, "unit": "%"}, {"measurement": "kinase still bound, per cent of control", "setting": "[4]", "value": 100, "unit": "%"}, {"measurement": "kinase still bound, per cent of control", "setting": "PIM2 (human)", "value": 100, "unit": "%"}, {"measurement": "kinase still bound, per cent of control", "setting": "RPS6KA5 KD1 (human)", "value": 96, "unit": "%"}, {"measurement": "kinase still bound, per cent of control", "setting": "OXSR1 (human)", "value": 88, "unit": "%"}, {"measurement": "kinase still bound, per cent of control", "setting": "EIF2AK1 (human)", "value": 100, "unit": "%"}, {"measurement": "kinase still bound, per cent of control", "setting": "PIM3 (human)", "value": 88, "unit": "%"}, {"measurement": "kinase still bound, per cent of control", "setting": "MAPK9 (human)", "value": 94, "unit": "%"}, {"measurement": "kinase still bound, per cent of control", "setting": "STK38L (human)", "value": 100, "unit": "%"}, {"measurement": "kinase still bound, per cent of control", "setting": "SBK1 (human)", "value": 100, "unit": "%"}, {"measurement": "kinase still bound, per cent of control", "setting": "EPHB1 (human)", "value": 98, "unit": "%"}, {"measurement": "kinase still bound, per cent of control", "setting": "RAF1 (human)", "value": 100, "unit": "%"}, {"measurement": "kinase still bound, per cent of control", "setting": "PIP4K2B (human)", "value": 100, "unit": "%"}, {"measurement": "kinase still bound, per cent of control", "setting": "STK4 (human)", "value": 100, "unit": "%"}, {"measurement": "kinase still bound, per cent of control", "setting": "CRK2 (P.falciparum)", "value": 100, "unit": "%"}, {"measurement": "kinase still bound, per cent of control", "setting": "FGFR4 (human)", "value": 28, "unit": "%"}, {"measurement": "kinase still bound, per cent of control", "setting": "[5]", "value": 84, "unit": "%"}, {"measurement": "kinase still bound, per cent of control", "setting": "CAMK4 (human)", "value": 79, "unit": "%"}, {"measurement": "residual activity", "setting": "CDK9 (human)", "value": 100, "unit": "%"}]}
